Measured values taken from patent publication US12102612B2, “Pharmaceutical composition comprising hydroquinone derivative for preventing or treating obesity or nonalcoholic steatohepatitis” (BIOTOXTECH CO., LTD., priority 2018, dated 2024).
“Also recorded” adds a separate entry of the source.

How the values were obtained:
[1] = tested on: western diet NASH mouse models; conditions: cited from earlier work
CD-1(ICR) mice = conditions: mouse, in vivo; cited from earlier work
[2] = tested on: normal persons and nonalcoholic fatty liver patients; conditions: 10-25 mg per adult; cited from earlier work
[3] = tested on: nonalcoholic fatty liver in mice; conditions: cited from earlier work
mice = conditions: repeated for 13 weeks; cited from earlier work
[4] = tested on: MCD diet-fed NASH model (8 weeks); assay: Efficacy in NASH model fed with methionine and choline deficient (MCD) diet for 8 weeks; format: in vivo, male C57BL/6 mice; conditions: MCD diet 8 weeks; for alleviative effect on NASH / inhibitory activity against NASH: compared to the negative control, RSV and DDB complex 200 mg/kg
Text: A methionine and choline deficient (MCD) diet-fed model, in which steatosis has been induced as a result of the supply of a diet deficient in methionine and choline, which each play an important role in beta oxidation and very low-density lipoprotein, (VLDL) synthesis, is widely used as a model for observing an effect of alleviating NASH because it suffers from histopathologically serious lobular inflammation.
An MCD diet (RESEARCH DIETS, Product No: A02082002B) was fed 7-week-old male C57BL/6 mice for 4 weeks to induce nonalcoholic fatty liver and then for an additional 4 weeks during which the hydroquinone derivative compound 2,3,5-trimethylhydroquinone-1-hexylether (compound 1) according to the present invention and the comparative control drugs were orally administered to the mice at the specific doses repeatedly as indicated for test groups G3-G8 in Table 2. Alleviative effects on NASH were assessed by clinicopathological and histopathological examinations.
The normal group was fed with a normal diet (RESEARCH DIETS, Product No: A02082003B), but not the MCD diet. To the negative control, only the excipient 0.5% methyl cellulose (MC) aqueous solution was administered after the MCD diet was fed thereto. […] For resveratrol and the DDB hepatoprotectant, the daily dose was set forth to be 200 mg/kg.
(§1) The liver tissues were resected from mice fed with MCD diet for 8 weeks and prepared into hematoxylin-eosin (H&E) stained slides, as in the histopathological examination method of Test Example 1. Based on the criteria of Table 1, changes in 1) steatosis, 2) lesions such as hepatic lobular inflammation, etc. (lobular inflammation), and 3) ballooning degeneration of hepatocytes (ballooning) were analyzed and the scores were summed to afford NAFLD activity scores for evaluating therapeutic effects on NASH.

[5] = tested on: MCD diet-fed NASH model (12 weeks); assay: Efficacy in NASH model fed with MCD diet for 12 weeks; format: in vivo, male C57BL/6 mice; conditions: MCD diet 12 weeks
Text: The duration of feeding MCD diet was extended to a total of 12 weeks to increase the induction level of NASH. To this end, male C57BL/6 mice at 7 weeks of age were fed with a methionine and choline-deficient diet for 8 weeks to induce nonalcoholic fatty liver and then subjected to the same repeat administration program at the same doses for 4 weeks as in Table 2.

[6] = tested on: FFC diet-fed non-alcoholic steatohepatitis model; assay: Efficacy in fat-, fructose- and cholesterol-rich (FFC) diet-fed non-alcoholic steatohepatitis model; format: in vivo, male C57BL/6 mice
Text: FFC diet (fat-, fructose-, and cholesterol-rich diet) (RESEARCH DIETS, Product No.: D12079B) was fed to male C57BL/6 mice 6-7 weeks old for 16 weeks to induce nonalcoholic fatty liver. Only animals with a NAFLD activity score (NAS) of 3.2 or more were selected by biopsy. Two weeks after biopsy, the animals were divided into three test groups including a negative control injected with a 0.5% methyl cellulose (MC) aqueous solution only (FFC control) and compound 1 groups injected with a solution of compound 1 (2,3,5-trimethylhydroquinone-1-hexylether compound, 30 mg/kg and 200 mg/kg) in a 0.5% MC aqueous solution. Compound 1 was administered for a total of 2 months and evaluated for alleviative efficacy for NASH by histopathological examination.
For histopathological examination, the mice were sacrificed and subjected to hepatectomy. The liver tissues thus obtained were prepared into hematoxylin-eosin (H&E) stained slides. In brief, the resected liver tissues were fixed in 4% paraformaldehyde at 4° C. for 24 hours, washed with flowing water, embedded into paraffin, and sectioned into blocks 3-4 μm thick. The sectioned tissue was attached to a coated slide, de-paraffinized with xylene, and rehydrated with graded alcohols (99%, 95%, 90%, 80%, and 70% ethanol (EtOH)) before histological staining. The sectioned tissues were stained with hematoxylin for 5 min and washed with flowing water for 5 min, following by destaining with 1% HCl alcohol and ammonia. Subsequently, the tissues were washed with flowing water for 10 min, counterstained with eosin for 1 min, and dehydrated in the reverse order of the hydration before mounting.
The H&E-stained slides were histopathologically assessed under a microscope and scored according to the NAFLD activity score (NAS) criteria given in Table 1. NAFLD activity scores are expressed as a sum of assessment scores for changes in 1) steatosis, 2) lesions such as hepatic lobular inflammation, etc. (lobular inflammation), and 3) ballooning degeneration of hepatocytes (ballooning) and are widely used for evaluating the severity of NASH.

[7] = tested on: high-fat diet-induced insulin resistance; assay: Insulin resistance assay in high-fat diet-fed mice; format: in vivo, male C57BL/6 mice; conditions: week 7 of administration, vs negative control and other drug controls
Protocol: An insulin resistance assay was conducted on week 7 of administration of compound 1 to examine the effect of compound 1 on the insulin resistance induced by high-fat diet. For the insulin resistance assay, the mice were fast for 4 hours and intraperitoneally injected with insulin (0.7 IU/kg), followed by measuring blood glucose levels every 30 min. Insulin resistance was digitized for quantitative comparison. In this regard, while pre-insulin blood levels were set forth to be baselines, areas under the curves of reduced blood glucose levels were digitized into iAUC values (FIG. 14). Here, a smaller iAUC value means higher insulin resistance and a larger iAUC value means higher insulin sensitivity.

rats [8] = assay: Toxicity assay of repetitive oral administration for 13 weeks; format: in vivo; conditions: repeated for 13 weeks
beagle dogs = assay: Maximum tolerance dose in beagle dogs; format: in vivo
rats [9] = assay: Single-dose oral administration toxicity assay for rats; format: in vivo; conditions: single oral dose as high as 2000 mg/kg
adult = assay: Clinical trial phase 1 (single and 14-day repetitive administration); format: in vivo, human; conditions: for abnormal responses (such as dyslipidemia) after repetitive administration: up to 1,000 mg per adult for 14 days
[10] = tested on: high-fat diet-fed obesity and NASH model; assay: Efficacy in obesity and NASH model fed with high-fat diet (HFD); format: in vivo, male C57BL/6 mice
Protocol: High-fat diet with 60 kcal % (RESEARCH DIETS, Product No: D12492) was fed to 7-week-old male C57BL/6 mice for 16 weeks to induce nonalcoholic fatty liver, followed by repeatedly administering test substances, along with the high-fat diet, via an oral route for 9 weeks from weeks 17 to 25. Alleviative effects on NASH were assessed by clinicopathological and histopathological examinations.
The test groups included a normal control which was not fed with HFD, but with a normal diet (10 kcal % fat diet, RESEARCH DIETS, Product No: D12450B), a negative control which was fed with HFD and then with the excipient 0.5% methyl cellulose (MC) aqueous solution alone, compound 1 (2,3,5-trimethylhydroquinone-1-hexylether)-administered groups (30, 100, 200 mg/kg), and comparative controls (obeticholic acid 30 mg/kg, pioglitazone 10 mg/kg, and DDB hepatoprotectant 200 mg/kg).
During repeatedly oral administration of the test substances for 9 weeks as in the assay method of (1), the mice were observed and recorded for weight gain, food intake, and general symptoms.
as §1, with “Liver” for “The liver”, “from HFD-fed” for “from”, “mice” for “mice fed with MCD diet for 8 weeks”

## CC[C@H]1[C@@H](O)[C@@H]2[C@H](CC[C@]3(C)[C@@H]([C@H](C)CCC(=O)O)CC[C@@H]23)[C@@]2(C)CC[C@@H](O)C[C@@H]12 [Obeticholic acid, obeticholic acid]
[1]
  dose that aggravated NAFLD (liver fibrosis worsen, ALT level increased): ≥ 40 mg/kg
CD-1(ICR) mice
  dose causing serious side effects such as death of animals: ≥ 175 mg/kg
[2]
  total cholesterol and LDL cholesterol levels (side effect): increasing total cholesterol and LDL cholesterol levels

## CCc1ccc(CCOc2ccc(CC3SC(=O)NC3=O)cc2)nc1 (stereo not shown) [Pioglitazone, pioglitazone]
[3]
  dose that aggravates fatty liver: 25 mg/kg
mice
  dose at which subject death occurred: ≥ 320 mg/kg
  dose causing cardiac adverse effects: ≥ 100 mg/kg

## Oc1ccc(C=Cc2cc(O)cc(O)c2)cc1 [Resveratrol, resveratrol, reference compound]
[4]
  alleviative effect on NASH / inhibitory activity against NASH: did not exhibit an alleviative effect on NASH
[5]; 200 mg/kg, compared to the negative control
  alleviative effect on NASH: did not exhibit an alleviative effect on NASH

## CCCCCCOc1cc(C)c(O)c(C)c1C [compound 1, 2,3,5-trimethylhydroquinone-1-hexylether]
[6]; 30 and 200 mg/kg for 2 months, dose-dependent, FIG. 2
  fatty liver: alleviated
[6]; 30 and 200 mg/kg for 2 months, dose-dependent, FIG. 3
  NAFLD activity scores: alleviated
[6]; compound 1 30 and 200 mg/kg for 2 months, vs FFC control, FIG. 1
  lobular inflammatory cellular infiltration (lobular inflammation): decrease lobular inflammatory cellular infiltration
[7]; 4 h fast, insulin 0.7 IU/kg i.p., FIG. 13
  blood glucose level upon insulin administration: reduced in blood glucose level more fast
[7]; FIG. 14
  suppressive effect on high-fat diet-induced insulin resistance (iAUC values): higher suppressive effect on high-fat diet-induced insulin resistance
Rats [8]; dose as high as 500 mg/kg
  side effects such as death, weight loss, organ failure: did not invoke significant side effects; also recorded: no side effects such as death, weight loss, organ failure, etc. were detected
Rats [8]; up to 500 mg/kg, FIG. 12
  changes in weight gain, food consumption, urological and serological examinations: No changes attributed to the administration of compound 1 were detected
Beagle dogs
  maximum tolerance dose: 2,000 mg/kg
Rats [9]
  mortality: did not cause mortality
adult; single dose of up to 2,000 mg per adult
  abnormal responses after single dose: no abnormal responses were observed
adult
  abnormal responses (such as dyslipidemia) after repetitive administration: no abnormal responses, such as dyslipidemia, were reported; also recorded: no abnormal responses were observed
adult; listed as 2,3,5-trimethylhydroquinone-1-hexylether
  abnormal responses (such as dyslipidemia) after repetitive administration: no abnormal responses were observed
[4]; 200 mg/kg, vs negative control and comparative control groups, FIG. 6
  ALT level: remarkably reduced
[4]
  alleviative effect on NASH / inhibitory activity against NASH: excellent inhibitory activity against NASH
[4]; oral 30 and 200 mg/kg for 4 weeks, vs MCD control, FIG. 4
  effect of reducing lobular inflammatory cellular infiltration: remarkable
[4]; FIG. 5
  NAFLD activity scores: reduce
[4]; PGZ 10 mg/kg, OCA 30 mg/kg
  anti-inflammatory efficacy compared to pioglitazone (PGZ) and obeticholic acid (OCA): excellent anti-inflammatory efficacy
[10]; 200 mg/kg, compared to the other drug groups
  suppressive effect on lobular inflammation: remarkably highly suppressive effect
[10]; 30, 100, 200 mg/kg, vs HFD control, dose-dependent
  fatty liver: alleviated
[10]; 30, 100, 200 mg/kg, vs HFD control, dose-dependent, FIG. 15
  hepatic lobular cellular infiltration: alleviated
[10]; HFD model, compared to the negative control, FIG. 19(A)
  blood levels of cholesterol: reduced
[10]; HFD model, compared to the negative control, FIG. 19(B)
  blood levels of triglyceride: reduced
[10]; HFD model, relative to normal levels, FIG. 17
  ALT: recovered
[10]; HFD model, relative to normal levels, FIG. 18
  AST: recovered
[10]; HFD model, FIG. 17
  ALT levels vs the other drug controls: further reduced
[10]; HFD model, FIG. 18
  AST levels vs the other drug controls: further reduced
[10]; autopsy after 9 weeks oral administration, FIG. 11
  accumulation of visceral fats such as epididymal fats (epididymal fat weights): excellent effect of inhibiting the accumulation of visceral fats
[10]; compared to the other drugs, FIGS. 15 and 16
  therapeutic effects on NASH by histopathological examinations (lobular inflammation, NAFLD activity scores): excellent therapeutic effects on NASH
[10]; oral 30, 100, 200 mg/kg for 9 weeks, vs HFD control, FIG. 9
  weight gain increments resulting from the intake of high-fat diet: remarkably reduced
[5]; oral 30 and 200 mg/kg for 4 weeks, vs MCD control, dose-dependent, FIG. 7
  lobular inflammatory cellular infiltration: reduced lobular inflammatory cellular infiltration
[5]; vs MCD control, dose-dependent, FIG. 8
  NAFLD activity scores: lowered NAFLD activity scores
[5]; PGZ 10 mg/kg, OCA 30 mg/kg
  anti-inflammatory effect compared to pioglitazone (PGZ) and obeticholic acid (OCA): excellent anti-inflammatory effect
